From patent publication US20050272035A1, “Functional screening method” (priority 2002, published 2005)

Key:
[1] = test system: Cyt-C (EGFP-Cytochrome C); assay: Granularity and Membrane Spot image analysis of EGFP-Cytochrome C indicator in HeLa cells; type: cell-based; conditions: staurosporine treated HeLa cells, FIG. 10 inset
From the text: A further group of indicator proteins were transfected into HeLa cells and cells imaged before and after exposure to staurosporine as described in Example 2. […] These algorithms return results which quantitate fluorescence in degrees of granularity (i.e. low value indicates uniform distribution, high value indicates punctate distribution) and in terms of membrane localisation.

[2] = test system: ATF1 (activating transcription factor 1); assay: Nuclear trafficking (N/C ratio) of ATF1-EGFP indicator in transiently transfected HeLa cells; type: cell-based; conditions: 1 μM, 5 minutes, scatterplot FIG. 9
Description: Expression vectors encoding cDNA-EGFP indicators were transiently transfected into HeLa cells growing in wells of 96 well microtitre plates by chemically mediated transfection (Fugene, Roche) and cells incubated under standard growth conditions for 24 hours to permit synthesis of indicator fusion proteins. Cells were subsequently stained with DRAQ 5, a cell permeable nuclear DNA binding dye (Biostatus), to fluorescently mark cell nuclei, and all wells imaged with dual laser excitation (EGFP 488 nm, DRAQ 5 633 nm) using an IN Cell Analyzer (Amersham Biosciences). Data for green (EGFP) and red (DRAQ 5) fluorescence were collected for all cells (FIG. 6) and used to determine thresholds for data separation of transfected cells (EGFP fluorescence above threshold) from non-transfected cells (EGFP fluorescence below threshold).
Indicator proteins derived from a range of cDNAs as described for Example 1 were transfected into HeLa cells and allowed to express for 24 hours. Following expression, cells were transferred into serum-free media for 2 hours to allow effects of stimuli from serum factors such as cortisol to decay. […] This algorithm allows the spatial distribution of cDNA-EGFP fusion proteins to be quantitated in expressing cells: a low N/C ratio indicating a cytoplasmic location for the indicator protein, a high N/C ration indicating a nuclear location. […]

CN[C@@H]1C[C@H]2O[C@@](C)([C@@H]1OC)n1c3ccccc3c3c4c(c5c6ccccc6n2c5c31)C(=O)NC4 [staurosporine]
ratio of outputs of Granularity and Membrane Spot algorithms for Cyt-C indicator [1]: highest differential return from the two algorithms | response of ATF1 indicator N/C ratio to modulator [2]: specific and differential responses
